In patent US20250032454A1, “KDM1A INHIBITORS FOR THE TREATMENT OF DISEASE” (Imago Biosciences, Inc., priority 2021, published 2025):

Target: LSD1 (Homo sapiens, UniProt O60341)
Test: LSD1 fluorescence coupling enzyme assay (HRP/Amplex Red, H3(1-21)K4me2 peptide), 10-dose IC50
Assay type: biochemical
Conditions: 10 μM histone H3(1-21)K4me2 peptide substrate, 3-fold serial dilution from 100 μM
Text: Assaying the inhibition of KDM1A can be determined in vitro, in cultured cells, and in animals. There are a variety of spectrophotometric methods to detect the results of demethylation of methylated lysines, viz., detecting the products of KDM1A demethylase oxidative activity on a peptide fragment of at least 18 amino acids representing the N-terminus of the histone H3 substrate that contains a monomethyl at the fourth lysine residue. Hydrogen peroxide, one product of the KDM1A demethylase reaction, reacts with horseradish peroxidase and dihydroxyphenoxazine (ADHP) to produce the fluorescent compound resorufin (excitation=530-560 nm: emission=590 nm). The KDM1A demethylase enzyme activity can be obtained from mammalian cells or tissues expressing KDM1A from an endogenous or recombinant gene and purified or assayed from a whole cell extract. These methods can be used to determine the concentration of the disclosed compounds can inhibit fifty percent of the enzyme activity (IC50).
Alternatively, the production of H2O2 during the KDM1A reaction can be detected fluometrically. In this system, the production of H2O2 is detected in the HDM assay buffer after exposure to substrate, co-factor and enzyme using ADHP (10-Acetyl-3, 7-dihydroxyphenoxazine) as a fluorogenic substrate for horse radish peroxidase (HRP). […] The florescent product is resorufin. Sensitivity can be as low as 10-15 M of target protein. The signal is read using a fluorescence microplate reader at excitation and emission wavelengths of 530-560 nm and 590 nm, respectively.
Compounds were tested in a 10-dose IC50 mode fluorescence coupling enzyme assay with 3-fold serial dilution in duplicate starting at 100 μM. The production of FAD-dependent H2O2 as a result of demethylase activity of LSD1 on 10 μM histone H3(1-21)K4me2 peptide substrate was measured by coupling with HRP and Amplex Red to yield resorufin (fluorescence measured at Ex/Em=535/590 nm on EnVision, Perkin Elmer).

Row | IC50 | SMILES
1 | < 500 nM | N#Cc1ccc(-c2cc(NC[C@H]3CCC[C@H](N)C3)nn2-c2ccc3c(c2)NCCO3)cc1F [Example 119, 4-(3-((((1S,3S)-3-aminocyclohexyl)methyl)amino)-1-(3,4-dihydro-2H-benzo[b][1,4]oxazin-6-yl)-1H-pyrazol-5-yl)-2-fluorobenzonitrile 2,2,2-trifluoroacetate]
2 | < 500 nM | N#Cc1ccc(-c2cc(NC[C@H]3CCC[C@H](N)C3)nn2-c2ccc(N3CCC4(CCCO4)CC3)cc2)cc1F [Example 95, 4-(1-(4-(1-Oxa-8-azaspiro[4.5]decan-8-yl)phenyl)-3-((((1S,3S)-3-aminocyclohexyl)methyl)amino)-1H-pyrazol-5-yl)-2-fluorobenzonitrile 2,2,2-trifluoroacetate]
3 | < 500 nM | CN1CCN(c2ccc(-n3nc(NC[C@H]4CCC[C@H](N)C4)cc3-c3ccc(C#N)c(F)c3)c(F)c2)CC1=O [Example 109, 4-(3-((((1S,3S)-3-aminocyclohexyl)methyl)amino)-1-(2-fluoro-4-(4-methyl-3-oxopiperazin-1-yl)phenyl)-1H-pyrazol-5-yl)-2-fluorobenzonitrile]
4 | < 500 nM | N#Cc1ccc(-c2cc(NCC3CCCNCC3)nn2-c2ccc(N3CCS(=O)(=O)CC3)cc2F)cc1F (centres unmarked) [Example 107, 4-(3-((azepan-4-ylmethyl)amino)-1-(4-(1,1-dioxidothiomorpholino)-2-fluorophenyl)-1H-pyrazol-5-yl)-2-fluorobenzonitrile]
5 | < 500 nM | CO[C@H]1CCCN(c2ccc(-n3nc(NC[C@H]4CCC[C@H](N)C4)cc3-c3ccc(C#N)c(F)c3)cc2)C1 [Example 98, 4-(3-((((1S,3S)-3-aminocyclohexyl)methyl)amino)-1-(4-((S)-3-methoxypiperidin-1-yl)phenyl)-1H-pyrazol-5-yl)-2-fluorobenzonitrile 2,2,2-trifluoroacetate]
6 | < 500 nM | COC1CCN(c2ccc(-n3nc(NC[C@H]4CCC[C@H](NC(=N)N)C4)cc3-c3ccc(C#N)c(F)c3)cc2)CC1 [Example 128, 1-((1S,3S)-3-(((5-(4-cyano-3-fluorophenyl)-1-(4-(4-methoxypiperidin-1-yl)phenyl)-1H-pyrazol-3-yl)amino)methyl)cyclohexyl)guanidine]
7 | 1000 to 10000 nM | COC1CCN(c2cccc(-n3nc(NC[C@H]4CCC[C@H](N)C4)cc3-c3ccc(C#N)c(F)c3)c2)CC1 [Example 118, 4-(3-((((1S,3S)-3-aminocyclohexyl)methyl)amino)-1-(3-(4-methoxypiperidin-1-yl)phenyl)-1H-pyrazol-5-yl)-2-fluorobenzonitrile 2,2,2-trifluoroacetate]
8 | 1000 to 10000 nM | CN1CCN(c2ccc(-n3nc(NC[C@H]4CCC[C@H](N)C4)cc3-c3ccc(C#N)c(F)c3)cc2)CC1=O [Example 105, 4-(3-((((1S,3S)-3-aminocyclohexyl)methyl)amino)-1-(4-(4-methyl-3-oxopiperazin-1-yl)phenyl)-1H-pyrazol-5-yl)-2-fluorobenzonitrile]
9 | < 500 nM | CC(C)OC1CCN(c2ccc(-n3nc(NC[C@H]4CCC[C@H](N)C4)cc3-c3ccc(C#N)c(F)c3)cc2)CC1 [Example 94, 4-(3-((((1S,3S)-3-aminocyclohexyl)methyl)amino)-1-(4-(4-isopropoxypiperidin-1-yl)phenyl)-1H-pyrazol-5-yl)-2-fluorobenzonitrile 2,2,2-trifluoroacetate]
10 | < 500 nM | N#Cc1ccc(-c2cc(NC[C@@H]3CCC[C@@H](N)C3)nn2-c2ccc(N3CCSCC3)cc2)cc1F [Example 100, 4-(3-((((1R,3R)-3-aminocyclohexyl)methyl)amino)-1-(4-thiomorpholinophenyl)-1H-pyrazol-5-yl)-2-fluorobenzonitrile]
11 | < 500 nM | CN(c1ccc(-n2nc(NC[C@H]3CCC[C@H](N)C3)cc2-c2ccc(C#N)c(F)c2)cc1)C1CCOCC1 [Example 93, 4-(3-((((1S,3S)-3-aminocyclohexyl)methyl)amino)-1-(4-(methyl(tetrahydro-2H-pyran-4-yl)amino)phenyl)-1H-pyrazol-5-yl)-2-fluorobenzonitrile 2,2,2-trifluoroacetate]
12 | < 500 nM | N#Cc1ccc(-c2cc(NC[C@@H]3CCCNCC3)nn2-c2ccc(N3CCS(=O)(=O)CC3)c(F)c2)cc1F [Example 111, (R)-4-(3-((azepan-4-ylmethyl)amino)-1-(4-(1,1-dioxidothiomorpholino)-3-fluorophenyl)-1H-pyrazol-5-yl)-2-fluorobenzonitrile 2,2,2-trifluoroacetate]
13 | < 500 nM | CCOC1CCN(c2ccc(-n3nc(NC[C@H]4CCC[C@H](N)C4)cc3-c3ccc(C#N)c(F)c3)cc2)CC1 [Example 97, 4-(3-((((1S,3S)-3-aminocyclohexyl)methyl)amino)-1-(4-(4-ethoxypiperidin-1-yl)phenyl)-1H-pyrazol-5-yl)-2-fluorobenzonitrile 2,2,2-trifluoroacetate]
14 | 1000 to 10000 nM | COc1ccc(-n2nc(NC[C@@H]3CCC[C@H](CN)C3)cc2-c2ccc(C#N)c(F)c2)cc1 [Example 79, 4-(3-((((1R,3S)-3-(aminomethyl)cyclohexyl)methyl)amino)-1-(4-methoxyphenyl)-1H-pyrazol-5-yl)-2-fluorobenzonitrile]
15 | < 500 nM | N#Cc1ccc(-c2cc(NC[C@H]3CCC[C@H](N)C3)nn2-c2ccc(N3CCC(O)CC3)cc2)cc1F [Example 89, 4-(3-((((1S,3S)-3-aminocyclohexyl)methyl)amino)-1-(4-(4-hydroxypiperidin-1-yl)phenyl)-1H-pyrazol-5-yl)-2-fluorobenzonitrile]
16 | < 500 nM | CN1CCN(c2ccc(-n3nc(NC[C@H]4CCC[C@H](NC(=N)N)C4)cc3-c3ccc(C#N)c(F)c3)cc2)CC1 [Example 127, 1-((1S,3S)-3-(((5-(4-cyano-3-fluorophenyl)-1-(4-(4-methylpiperazin-1-yl)phenyl)-1H-pyrazol-3-yl)amino)methyl)cyclohexyl)guanidine 2,2,2-trifluoroacetate]
17 | < 500 nM | COC1(C)CCN(c2ccc(-n3nc(NC[C@H]4CCC[C@H](N)C4)cc3-c3ccc(C#N)c(F)c3)cc2)CC1 [Example 102, 4-(3-((((1S,3S)-3-aminocyclohexyl)methyl)amino)-1-(4-(4-methoxy-4-methylpiperidin-1-yl)phenyl)-1H-pyrazol-5-yl)-2-fluorobenzonitrile 2,2,2-trifluoroacetate]
18 | < 500 nM | N#Cc1ccc(-c2cc(NC[C@@H]3CCCNCC3)nn2-c2ccc(N3CC[S+]([O-])CC3)cc2)cc1F [Example 91, (R)-4-(3-((azepan-4-ylmethyl)amino)-1-(4-(1-oxidothiomorpholino)phenyl)-1H-pyrazol-5-yl)-2-fluorobenzonitrile 2,2,2-trifluoroacetate]
19 | < 500 nM | COC1CCN(c2ccc(-n3nc(NC[C@H]4CCC[C@H](N)C4)cc3-c3ccc(C#N)c(F)c3)c(F)c2)CC1 [Example 92, 4-(3-((((1S,3S)-3-aminocyclohexyl)methyl)amino)-1-(2-fluoro-4-(4-methoxypiperidin-1-yl)phenyl)-1H-pyrazol-5-yl)-2-fluorobenzonitrile 2,2,2-trifluoroacetate]
20 | < 500 nM | CC1(O)CCN(c2ccc(-n3nc(NC[C@H]4CCC[C@H](N)C4)cc3-c3ccc(C#N)c(F)c3)cc2)CC1 [Example 101, 4-(3-((((1S,3S)-3-aminocyclohexyl)methyl)amino)-1-(4-(4-hydroxy-4-methylpiperidin-1-yl)phenyl)-1H-pyrazol-5-yl)-2-fluorobenzonitrile 2,2,2-trifluoroacetate]

Row | SMILES | IC50
21 | COC1(C)CCN(c2ccc(-n3nc(NCC45CCN(CC4)CC5)cc3-c3ccc(C#N)c(F)c3)cc2)CC1 [Example 125, 2-Fluoro-4-(1-(4-(4-methoxy-4-methylpiperidin-1-yl)phenyl)-3-((quinuclidin-4-ylmethyl)amino)-1H-pyrazol-5-yl)benzonitrile 2,2,2-trifluoroacetate] | < 500 nM
22 | COc1cc(N2CCS(=O)(=O)CC2)ccc1-n1nc(NCC23CCN(CC2)CC3)cc1-c1ccc(C#N)c(F)c1 [Example 126, 4-(1-(4-(1,1-Dioxidothiomorpholino)-2-methoxyphenyl)-3-((quinuclidin-4-ylmethyl)amino)-1H-pyrazol-5-yl)-2-fluorobenzonitrile 2,2,2-trifluoroacetate] | < 500 nM
23 | N#Cc1ccc(-c2cc(NCC34CCN(CC3)CC4)nn2-c2ccc3c(c2)NCCO3)cc1F [Example 123, 4-(1-(3,4-Dihydro-2H-benzo[b][1,4]oxazin-6-yl)-3-((quinuclidin-4-ylmethyl)amino)-1H-pyrazol-5-yl)-2-fluorobenzonitrile 2,2,2-trifluoroacetate] | < 500 nM
